Laboratory results as given in patent publication US10736859B2, “Eutectic formulations of cyclobenzaprine hydrochloride and amitriptyline hydrochloride” (Tonix Pharma Holdings Limited, priority 2013, dated 2020).
Entries after “also recorded” stand apart in the source; their conditions may differ.

Assays:
[1] = DSC compatibility of Amitriptyline HCl with excipients, 1:1 milled mixtures (Example 4); format: physicochemical; conditions: Amitriptyline HCl + excipient 1:1, milled in agate mortar
Experimental: Thermal analytical techniques were used to assess the compatibility of the drug product amitriptyline HCl. The compatibility assessment was carried out between the API and the excipients in a 1:1 ratio. On the basis of thermal events recorded for each component and for the mixtures, the analyses were carried out by investigating the peaks recorded by DSC in mixtures between API and the excipients. Differences in thermal profiles between the single compound and the related mixtures were obtained after milling the products in an agate mortar.
DSC was performed substantially as described in Examples 1 and 2. The following raw materials were used: • Amitriptyline HCl • Sodium stearyl fumarate • Stearic acid • Glycerol dibehenate • Magnesium stearate • Pearlitol flash • Pearlitol 200 SO/Mannitol • Unipure DW/Com starch pregelatinized • Crospovidone-Kollidon CL • Silicon Colloidal/Aerosil 200 • Sodium phosphate dibasic • Sodium bicarbonate • Sodium carbonate • Sodium Phosphate dodecahydrate • Sodium Phosphate anhydrous.

[2] = DSC, FT-IR/ATR and XRPD compatibility of Cyclobenzaprine HCl with additional excipients, mixed (A) and milled (B) 1:1 mixtures (Example 2); format: physicochemical; conditions: for Interactions between Cyclobenzaprine HCl and excipients, Mixture 1:1 (mixed): mixture A, mechanical mixing only; for Interactions between Cyclobenzaprine HCl and excipients, Mixture 1:1 (mixed) / Interactions between Cyclobenzaprine HCl and excipients, Mixture 1:1 (milled): DSC; for Interactions between Cyclobenzaprine HCl and excipients, Mixture 1:1 (milled): mixture B, ground in agate mortar
Experimental: As described above, thermal analytical techniques were further used to assess the compatibility of a drug product (tablet) containing Cyclobenzaprine HCl (API). The compatibility assessment was carried out between the API and additional excipients in a 1:1 ratio. The 1:1 API-excipient mixtures were formed in two different ways: first, by mixing only, and second, by strong milling in an agate mortar. The thermal behavior recorded in the two different mixtures were compared with those of the single components. On the basis of thermal events recorded for each component and for the mixtures, the analyses were carried out by investigating the meanings of the peaks recorded by differential scanning calorimetry (DSC) in mixtures between the API and the excipients. Furthermore, in order to define the nature of the interaction, the Fourier Transformate Infra Red Spectroscopy with Total Attenuated Reflectance (FT-IR/ATR) and X-ray powder diffraction (XRPD) of some samples (API, excipient, and mixed and milled mixtures) was carried out and compared.
Aliquots of API and each excipient were weighed in a ratio of 1:1 and ground in an agate mortar. Then, the homogeneous mixtures were analyzed. These sample mixtures were labeled “B”, while the mechanical-only mixtures were labeled “A.”
The DSC heating curves were obtained by TA 821 DSC Mettler instrument under the following conditions: • Heating rate: 10° C./min • Ambient: Nitrogen 30 mL/min • Sample holder: normal open aluminum pan • Temperature range: from 25° C. to 250° C. • Instrument calibration: Indium sample purity 99.999% Fourier Transformate Infra Red Spectroscopy with Total Attenuated Reflectance (FT-IR/ATR)
The FT-IR spectra were collected with a Perkin Elmer spectrum Two instrument with air as background and 4 cm^−1 resolution.
X-ray powder diffraction (XRPD) tests were performed with the ULTIMA IV instrument (Rigaku), laying the sample on a static sample holder. The X-ray focusing slit has a variable width, interlocked with the q value. The X-ray tube has a Copper target, with a current intensity of 40 mA and a voltage of 40 kV. Radiation was generated by the Cockcroft-Walton method, and was constituted by Kα1 (1.540562 Å) and Kα2 (1.544398 Å). The analytical conditions were: • Fixed Time; sampling width 0.02 deg, scanning rate 1.3 s/step, 2 q range 3.35 deg and sample holder; amorphous glass equiangular 9200/2G, 0.2 mm deep. The sample was pressed with a glass plate.

[3] = listed as sodium phosphate dihydrate, Sodium phosphate dihydrate
[4] = listed as trisodium citrate dihydrate, citrate dihydrate
[5] = listed as Trisodium Citrate anhydrous
[6] = listed as sodium phosphate anhydrous

O=P([O-])([O-])O.[Na+].[Na+] [Sodium phosphate dibasic]
Interactions between API and excipients, Mixture in formulation (1:1 ratio) [1]: Physical interaction

O.O.O.O.O.O.O.O=P([O-])([O-])O.[Na+].[Na+] [Di Sodium phosphate heptahydrate]
Interactions between Cyclobenzaprine HCl and excipients, Mixture 1:1 (mixed) [2]: Chemical
Interactions between Cyclobenzaprine HCl and excipients, Mixture 1:1 (milled) [2]: Chemical

CCCCCCCCCCCCCCCCCCCCCC(=O)OCC(CO)OC(=O)CCCCCCCCCCCCCCCCCCCCC (stereo not shown) [Glycerol dibehenate]
Interactions between API and excipients, Mixture in formulation (1:1 ratio) [1]: No interaction
Interactions between API and excipients, Mixture in formulation (1:1 ratio) ([1]; listed as glycerol dibehenate): small physical interaction

O.O.O=P([O-])([O-])O.[Na+].[Na+] [Di Sodium phosphate di hydrate, Di Sodium phosphate dihydrate]
Interactions between Cyclobenzaprine HCl and excipients, Mixture 1:1 (mixed) ([2]; Sodium phosphate dihydrate): Chemical
Interactions between Cyclobenzaprine HCl and excipients, Mixture 1:1 (mixed) [2, 3]: a physical interaction and partial solubilization
Interactions between Cyclobenzaprine HCl and excipients, Mixture 1:1 (milled) ([2]; Sodium phosphate dihydrate): Chemical
Interactions between Cyclobenzaprine HCl and excipients, Mixture 1:1 (milled) [2, 3]: physical interaction

O.O.O=C([O-])CC(O)(CC(=O)[O-])C(=O)[O-].[Na+].[Na+].[Na+] [Trisodium citrate dihydrate]
Interactions between Cyclobenzaprine HCl and excipients, Mixture 1:1 (mixed) ([2]; citrate dihydrate): Chemical
Interactions between Cyclobenzaprine HCl and excipients, Mixture 1:1 (mixed) [2, 4]: physico-chemical interaction
Interactions between Cyclobenzaprine HCl and excipients, Mixture 1:1 (milled) ([2]; citrate dihydrate): Chemical
Interactions between Cyclobenzaprine HCl and excipients, Mixture 1:1 (milled) [2, 4]: physico-chemical interaction

OC[C@@H](O)[C@@H](O)[C@H](O)[C@@H](O)CO [Sorbitol]
Interactions between Cyclobenzaprine HCl and excipients, Mixture 1:1 (mixed) [2]: Chemical
Interactions between Cyclobenzaprine HCl and excipients, Mixture 1:1 (mixed) ([2]; listed as sorbitol): interaction was observed, due to the solubilization of API by sorbitol
Interactions between Cyclobenzaprine HCl and excipients, Mixture 1:1 (milled) [2]: Chemical
Interactions between Cyclobenzaprine HCl and excipients, Mixture 1:1 (milled) ([2]; listed as sorbitol): interaction was observed, due to the solubilization of API by sorbitol

O=C([O-])CC(O)(CC(=O)[O-])C(=O)[O-].[Na+].[Na+].[Na+] [Tri Sodium Citrate anhydrous, Trisodium citrate anhydrous]
Chemical acid-base reaction by FT-IR/ATR ([2]; mixture A 1:1 with Cyclobenzaprine HCl, room temperature, chlorohydrate band 3000-2000 cm-1): no chemical acid-base reaction had occurred
Interactions between Cyclobenzaprine HCl and excipients, Mixture 1:1 (mixed) [2]: Physical
Interactions between Cyclobenzaprine HCl and excipients, Mixture 1:1 (mixed) [2, 5]: physical complex melting at a lower temperature
Interactions between Cyclobenzaprine HCl and excipients, Mixture 1:1 (milled) [2]: Physical
Interactions between Cyclobenzaprine HCl and excipients, Mixture 1:1 (milled) [2, 5]: physical complex melting at lower temperature

O=C([O-])[O-].[Na+].[Na+] [Sodium carbonate]
Interactions between API and excipients, Mixture in formulation (1:1 ratio) [1]: small physical interaction; also recorded: No interaction

Magnesium stearate
Interactions between API and excipients, Mixture in formulation (1:1 ratio) [1]: small physical interaction

Sodium Phosphate dodecahydrate
Interactions between API and excipients, Mixture in formulation (1:1 ratio) [1]: physical/chemical interaction

O=P([O-])([O-])O.[Na+].[Na+] [Di Sodium phosphate anhydrous]
Interactions between Cyclobenzaprine HCl and excipients, Mixture 1:1 (mixed) [2]: Low chemical
Interactions between Cyclobenzaprine HCl and excipients, Mixture 1:1 (mixed) [2, 6]: physical interaction
Interactions between Cyclobenzaprine HCl and excipients, Mixture 1:1 (milled) [2]: Low chemical
Interactions between Cyclobenzaprine HCl and excipients, Mixture 1:1 (milled) [2, 6]: physical interaction
Interactions between API and excipients, Mixture in formulation (1:1 ratio) ([1]; listed as Sodium phosphate anhydrous): No physical interaction

CCCCCCCCCCCCCCCCCC(=O)O [Stearic acid]
Interactions between API and excipients, Mixture in formulation (1:1 ratio) [1]: small physical interaction; also recorded: No interaction
